Source: ChEMBL document CHEMBL1136231, “Synthesis of a novel family of diterpenes and their evaluation as anti-inflammatory agents” (Bioorg Med Chem Lett, 2003)
Values after ≈ are worked out from the molar mass of the structure shown. Active and inactive are the calls of the source. The calls are words filed in the database; no cut-off is given here.

Columns and labels:
Assay type in all cases: functional
[1] = Inhibition efficacy of TNF-alpha was tested in HPBMC (Human Peripheral Blood Mononuclear Cells); design: concentration or dose not given beside the values
Homo sapiens [2] = species on record: Homo sapiens; assay: (§1) Cytotoxicity in HPBMC (Human Peripheral Blood Mononuclear Cells); Not active
[3] = Inhibition of TNF-alpha was tested in HPBMC (Human Peripheral Blood Mononuclear Cells)
[4] = (§2) Cytotoxicity in HPBMC (Human Peripheral Blood Mononuclear Cells); design: concentration or dose not given beside the values
[5] = as §2
Homo sapiens [6] = species on record: Homo sapiens; assay: Inhibition efficacy of TNF-alpha was tested in HPBMC (Human Peripheral Blood Mononuclear Cells); Not active
[7] = Inhibition of TNF-alpha was tested in HPBMC (Human Peripheral Blood Mononuclear Cells); inactive
[8] = Inhibition of TNF-alpha was tested in HPBMC (Human Peripheral Blood Mononuclear Cells); Inactive
[9] = as §1
[10] = Inhibition of TNF-alpha was tested in HPBMC (Human Peripheral Blood Mononuclear Cells); In active

Row | SMILES | IC50 [3] [µg/mL] | IC50 [7] | IC50 [10] | Efficacy [1] [%] | Efficacy (Homo sapiens [2]) | Efficacy [4] [%] | EC50 [5] [µg/mL] | Efficacy (Homo sapiens [6]) | IC50 [8] | EC50 [9]
1 | C=C[C@@]1(C)CCC=C2[C@H]1CC[C@@H]1[C@](C)(C(=O)OC)CCC[C@@]21C | 0.7 (≈ 2.21 µM) |  |  | 99 |  | 98 | 1.8 (≈ 5.69 µM) |  |  | 
2 | C=C[C@@]1(C)CCC=C2[C@H]1CC[C@@H]1[C@](C)(CO)CCC[C@@]21C | 2.3 (≈ 7.97 µM) |  |  | 38 | inactive |  |  |  |  | 
3 | C=C[C@@]1(C)CC(=O)[C@]2(O)[C@@]3(C)[C@@H](O)CCC(C)(C)[C@@H]3[C@H](O)[C@H](OC(C)=O)[C@@]2(C)O1 [COLFORSIN] |  | Not Active |  |  | inactive |  |  | inactive |  | 
4 | C[C@]1(C(=O)O)CCC[C@]2(C)c3cc(O)ccc3CC[C@@H]12 [PODOCARIC ACID] |  |  |  |  | inactive |  |  | inactive | Not Active | 
5 | C=C[C@]1(C)CCC=C2[C@H]1CC[C@@H]1[C@](C)(CO)CCC[C@@]21C | 2.2 (≈ 7.63 µM) |  |  | 99 |  | 93 | 2.3 (≈ 7.97 µM) |  |  | 
6 | COC(=O)[C@]1(C)CCC[C@@]2(C)C3=CCC[C@](C)(CO)[C@@H]3CC[C@H]12 |  |  | Not Active |  | inactive |  |  | inactive |  | Not Active

Continued, in another order:

Row | IC50 [3] [µg/mL] | IC50 [7] | IC50 [10] | SMILES | Efficacy [1] [%] | Efficacy (Homo sapiens [2]) | Efficacy [4] [%] | EC50 [5] [µg/mL] | Efficacy (Homo sapiens [6]) | IC50 [8] | EC50 [9]
7 | 0.6 (≈ 1.9 µM) |  |  | C=C[C@@]1(C)CCCC2=C1CC[C@@H]1[C@](C)(C(=O)OC)CCC[C@@]21C | 47 | inactive |  |  |  |  | 
8 | 5.7 (≈ 18.8 µM) |  |  | C=C[C@@]1(C)CCC=C2[C@H]1CC[C@@H]1[C@](C)(C(=O)O)CCC[C@@]21C | 90 |  | 66 | 7.8 (≈ 25.8 µM) |  |  | 
9 | 3.7 (≈ 12.2 µM) |  |  | C=C[C@]1(C)CCC=C2[C@H]1CC[C@@H]1[C@](C)(C(=O)O)CCC[C@@]21C | 86 |  | 35 |  |  |  | 
10 | 1.4 (≈ 4.42 µM) |  |  | C=C[C@]1(C)CCC=C2[C@H]1CC[C@@H]1[C@](C)(C(=O)OC)CCC[C@@]21C | 99 |  | 71 | 3.1 (≈ 9.8 µM) |  |  | 
11 | 2.8 (≈ 9.26 µM) |  |  | C=C[C@@]1(C)CCCC2=C1CC[C@@H]1[C@](C)(C(=O)O)CCC[C@@]21C | 98 |  | 99 | 2.2 (≈ 7.27 µM) |  |  | 
12 | 3.1 (≈ 10.7 µM) |  |  | C=C[C@@]1(C)CCCC2=C1CC[C@@H]1[C@](C)(CO)CCC[C@@]21C | 99 |  | 99 | 3.4 (≈ 11.8 µM) |  |  | 
